The results in this text go back to ChEMBL document CHEMBL6074666, “Design and Synthesis of Acyclic Boronic Acid Arginase Inhibitors” (J Med Chem, 2024).

In data set [1] the target is T1, Arginase-1 (Homo sapiens, UniProt P05089).
T1 sequence (P05089 whole entry): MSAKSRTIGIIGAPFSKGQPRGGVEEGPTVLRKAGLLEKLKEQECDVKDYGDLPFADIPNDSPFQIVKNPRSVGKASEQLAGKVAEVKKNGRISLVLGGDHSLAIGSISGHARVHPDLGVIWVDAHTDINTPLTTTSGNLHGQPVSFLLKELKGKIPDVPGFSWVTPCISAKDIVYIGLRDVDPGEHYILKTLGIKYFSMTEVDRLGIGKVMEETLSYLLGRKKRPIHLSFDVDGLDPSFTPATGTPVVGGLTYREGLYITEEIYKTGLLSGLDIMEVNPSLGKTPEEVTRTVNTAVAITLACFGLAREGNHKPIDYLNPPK
Briefly: Inhibition of recombinant human Arg1 extracted from Escherichia coli incubated for 30 mins by Ellman's method.

The target of data set [2] is T2, Arginase-2, mitochondrial (Homo sapiens, UniProt P78540).
T2 sequence (P78540 whole entry): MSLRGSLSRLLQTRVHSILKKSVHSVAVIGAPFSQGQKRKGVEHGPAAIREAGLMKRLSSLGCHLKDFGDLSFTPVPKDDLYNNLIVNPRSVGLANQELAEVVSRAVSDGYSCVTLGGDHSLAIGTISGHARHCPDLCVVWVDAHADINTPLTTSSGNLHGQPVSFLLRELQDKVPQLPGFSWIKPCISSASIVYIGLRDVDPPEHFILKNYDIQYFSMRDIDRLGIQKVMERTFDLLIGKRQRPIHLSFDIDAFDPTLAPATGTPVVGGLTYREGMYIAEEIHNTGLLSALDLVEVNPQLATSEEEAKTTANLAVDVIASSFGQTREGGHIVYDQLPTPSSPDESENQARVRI
The experiment in a line: Inhibition of recombinant human Arg2 extracted from Escherichia coli incubated for 30 mins by Ellman's method. (In general: Ellman's reagent forms a yellow product with free thiols.)

The nature of data set [3]: Oral availability in rat. Format: ADME. Conditions: in vivo.
Data set [4] can be described thus: Prodrug conversion in rat assessed as oral bioavailability of (2S,3S)-2-amino-3-(aminomethyl)-6-boronohexanoic acid metabolite. The conditions noted are these: in vivo. Format: ADME, organism-based.
Data set [5] deals with T3, Arginase-1 (Homo sapiens) (UniProt P05089).
T3 sequence (whole entry): T1 sequence (P05089 whole entry)
The experiment in a line: Potency index, ratio of ABH IC50 to test compound IC50 for recombinant human Arg1 extracted from Escherichia coli incubated for 30 mins by Ellman's method.

Data set [6] addresses T1, Arginase-1. Briefly: Inhibition of Arg1 (unknown origin).

A word on the IC50: it is the concentration that gives 50% inhibition. A word on the bioavailability: it is dose-corrected exposure relative to a reference, in per cent. A lower bioavailability goes with poor availability.

For the compound `N[C@H](C(=O)O)[C@H](CF)CCCB(O)O`, the IC50 at Arginase-1 [1] is 0.655 µM; in data set [2] it was 1.88 µM. For `COC[C@@H](CCCB(O)O)[C@H](N)C(=O)O`, the values for the IC50 (at Arginase-1 [1]; in data set [2]) were 10.9 µM and 18.7 µM, respectively. Turning to `NCC[C@@H](CCCB(O)O)[C@H](N)C(=O)O`, the IC50 in data set [2] was found to be 0.625 µM. As to `CC(C)(C)[C@H](N)C(=O)NC[C@H](CCCB(O)O)[C@H](N)C(=O)O`, the IC50 at Arginase-1 [1] was determined as 32 µM. The bioavailability in data set [3] turned out to be 19%. With `NCC(=O)NC[C@H](CCCB(O)O)[C@H](N)C(=O)O`, the IC50 on Arginase-1 [1] amounted to 21 µM. Further, the bioavailability in data set [3] came out at 6.3%. The F in data set [4] was 13%. Consider `CC(C)[C@H](N)C(=O)NC[C@H](CCCB(O)O)[C@H](N)C(=O)O`, for which, on Arginase-1 [1], the IC50 is 43 µM. In data set [3], this compound came in with a bioavailability of 8.3%. In data set [4], the F is given as 41%. `N[C@H](C(=O)O)[C@@H](CF)CCCB(O)O`: the figures for the IC50 (at Arginase-1 [1]; in data set [2]) were 4.23 µM and 6.08 µM, respectively. As for `C[C@H](N)C(=O)NC[C@@H](CCCB(O)O)[C@H](N)C(=O)O`, the IC50 at Arginase-1 [1] is 157 µM. The compound further displayed a bioavailability in data set [3] of 10%.

For `CNC(=O)[C@H](CCCB(O)O)[C@H](N)C(=O)O`, the IC50 at Arginase-1 [1] was 34.2 µM; in data set [2], > 100 µM. With `NC(=O)[C@H](CCCB(O)O)[C@H](N)C(=O)O`, the values for the IC50 (on Arginase-1 [1]; in data set [2]) were 19.2 µM and 41.8 µM, respectively. Take `COC(=O)[C@H](CCCB(O)O)[C@H](N)C(=O)O`: the IC50 on Arginase-1 [1] stood at 18.5 µM; in data set [2] it was 51.9 µM.

Turning to `CC(C)[C@H](N)C(=O)NC[C@@H](CCCB(O)O)[C@H](N)C(=O)O`, on Arginase-1 [1], the 50% inhibitory concentration (IC50) turned out to be 145 µM. The compound further displayed a bioavailability in data set [3] of 29%. For the same compound, in data set [4], the F worked out at 56%.

`COC[C@H](CCCB(O)O)[C@H](N)C(=O)O`: the values for the IC50 (at Arginase-1 [1]; in data set [2]) were 4.12 µM and 6.75 µM, respectively.

As for `N[C@H](C(=O)O)[C@@H](N)CCCB(O)O`, the IC50 on Arginase-1 [1] is 74 µM; in data set [2], 96.8 µM.

For the compound `NC(=O)NC[C@@H](CCCB(O)O)[C@H](N)C(=O)O`, the IC50 in data set [2] worked out at 5.18 µM. With `NC(=O)[C@@H](CCCB(O)O)[C@H](N)C(=O)O`, the IC50 (on Arginase-1 [1]; in data set [2]) was > 100 µM each time. In turn, `NC[C@@H](CCCB(O)O)[C@H](N)C(=O)O` displayed a bioavailability in data set [3] of 17%.

As for `COC(=O)[C@@H](CCCB(O)O)[C@H](N)C(=O)O`, the IC50 (on Arginase-1 [1]; in data set [2]) was > 100 µM throughout. In the case of `CC[C@H](C)[C@H](N)C(=O)NC[C@H](CCCB(O)O)[C@H](N)C(=O)O`, the IC50 at Arginase-1 [1] is 33 µM. Moreover, the bioavailability in data set [3] is 4.5%. Further, in data set [4], the F was 39%.

For the compound `C[C@H](N)C(=O)NC[C@H](CCCB(O)O)[C@H](N)C(=O)O`, on Arginase-1 [1], the IC50 is 12 µM. In data set [3], the bioavailability came out at 5.1%. The F in data set [4] is 55%. Moreover, in data set [5], the Ratio IC50 was determined as 40.

The compound `N[C@@H](CCCCB(O)O)C(=O)O` gave an IC50 at Arginase-1 [6] of 470 nM.

Take `N[C@H](C(=O)O)[C@H](CCCB(O)O)CN1CCCCC1`: the 50% inhibitory concentration (IC50) in data set [2] came out at 17.4 µM. `CC(C)[C@H](N)C(=O)N[C@H](C(=O)O)[C@H](CN)CCCB(O)O`: the F in data set [4] is listed as 31%. Turning to `C[C@H](N)C(=O)N[C@H](C(=O)O)[C@@H](CN)CCCB(O)O`, the F in data set [4] is 16%.

For `N=C(N)NC[C@@H](CCCB(O)O)[C@H](N)C(=O)O`, the IC50 at Arginase-1 [1] turned out to be 0.22 µM; in data set [2], 0.534 µM. Regarding `C[C@H](N)C(=O)N[C@H](C(=O)O)[C@H](CN)CCCB(O)O`, the IC50 at Arginase-1 [1] turned out to be 68 µM. Besides, in data set [4], the F turned out to be 66%. As to `CNC(=O)[C@@H](CCCB(O)O)[C@H](N)C(=O)O`, the IC50 on Arginase-1 [1] was > 100 µM. Turning to `CC[C@H](N)C(=O)NC[C@H](CCCB(O)O)[C@H](N)C(=O)O`, the IC50 on Arginase-1 [1] was 25 µM. The bioavailability in data set [3] is 1.5%. Besides, the F in data set [4] worked out at 72%.

Turning to `NC[C@H](CCCB(O)O)[C@H](N)C(=O)O`, in data set [2], the IC50 was 0.224 µM. For the same compound, in data set [3], the bioavailability came to 11%. For `CNC[C@@H](CCCB(O)O)[C@H](N)C(=O)O`, the IC50 in data set [2] stood at 1.93 µM.
